# From US10961200B2, “Small molecule inhibitors of lactate dehydrogenase and methods of use thereof” (THE UNITED STATES OF AMERICA, AS REPRESENTED BY THE …, priority 2014, dated 2021)
# Structures can show the parent of a compound that is named as a salt. Where two headings read alike, the source gives them in different places.
# Columns and labels:
# [1] = molecular target: Human LDHA (Homo sapiens (Human), UniProt P00338); test: human LDHA primary biochemical assay (resazurin/diaphorase coupled, fluorescence)
# Source text: Test compounds were placed in a Greiner Bio-One (Monroe, N.C.) 1536-well black solid bottom assay plate. 200 millimolar (mM) Tris HCl, pH 7.4, 100 micromolar […] EDTA and 0.01% TWEEN-20™, final concentration, was used as the assay buffer. The LDHA reagent was 2 nanomolar (nM) Human LDHA (Meridian Life Science, Inc., Memphis, Tenn.), final concentration, in assay buffer.
# [2] = tested on: MiaPaCa2 cells; test: cell-based HT lactate assay, colorimetric/fluorometric detection (inhibition of lactate production); settings: class symbols, 0 to 3 pluses
# Procedure: Cell-based HT Lactate assay is a miniaturized Biovision Lactate Colorimetric/Fluorometric Assay Kit (Cat #K607-100). The assay is roughly a 3.5 hour assay run in a 1536 plate format. Cell number optimization should be run for each cell line to achieve an optimal number in which lactate production equals roughly 90% of the standard curve range. Cell number per well optimization has been performed with the following cell lines: MiaPaCa2—500 cells/well, SNU398—500 cells/well, and P493—500 cells/well.
# The lactate activity in Table 8 is represented by 0 to 3 pluses as follows: +++<1 μM; ++1-10 μM; +10-57 μM; and −>57 μM.
# [3] = LDHA inhibitory activity, assay of Example 1, activity level classes
# [4] = read-out: Inhibitory activity IC50
"IC50 ([2]; Homo sapiens, MIA PaCa-2) [nM]","IC50 [1, 4] [nM]",Compound,"IC50 [1, 3] [nM]",IC50 [2] [nM]
1000 to 10000,–,"NS(=O)(=O)c1ccc(Cc2c(-c3cccc(-c4ccccc4)c3)nn(-c3nc(C(=O)O)cs3)c2CC2CC2(F)F)cc1 (stereo not shown) [Compound 207, 2-(3-([1,1′-biphenyl]-3-yl)-5-((2,2-difluorocyclopropyl)methyl)-4-(4-sulfamoylbenzyl)-1H-pyrazol-1-yl)thiazole-4-carboxylic acid]",< 100,–
> 57000,–,"Cn1c(C(=O)O)cnc1-n1cc(Cc2ccc(S(N)(=O)=O)cc2)c(-c2ccccc2)n1 [Compound 212, 1-methyl-2-(3-phenyl-4-(4-sulfamoylbenzyl)-1H-pyrazol-1-yl)-1H-imidazole-5-carboxylic acid]",> 57000,–
> 57000,1000 to 57000,"NS(=O)(=O)c1ccc(Cc2cn(-c3cc(C(=O)O)cs3)nc2-c2ccccc2)cc1 [Compound 213, 5-(3-phenyl-4-(4-sulfamoylbenzyl)-1H-pyrazol-1-yl)thiophene-3-carboxylic acid]",–,–
1000 to 10000,< 100,"Cn1cc(-c2cc(-c3nn(-c4nc(C(=O)O)cs4)c(CC4CC4)c3Cc3ccc(S(N)(=O)=O)cc3F)ccc2F)cn1 [Compound 214, 2-(5-(cyclopropylmethyl)-3-(4-fluoro-3-(1-methyl-1H-pyrazol-4-yl)phenyl)-4-(2-fluoro-4-sulfamoylbenzyl)-1H-pyrazol-1-yl)thiazole-4-carboxylic acid]",–,–
10000 to 57000,< 100,"Cc1noc(C)c1-c1cc(-c2nn(-c3nc(C(=O)O)cs3)c(CC3CC3)c2Cc2ccc(S(N)(=O)=O)cc2F)ccc1F [Compound 215, 2-(5-(cyclopropylmethyl)-3-(3-(3,5-dimethylisoxazol-4-yl)-4-fluorophenyl)-4-(2-fluoro-4-sulfamoylbenzyl)-1H-pyrazol-1-yl)thiazole-4-carboxylic acid]",–,–
1000 to 10000,< 100,"Cn1cc(-c2cc(-c3nn(-c4nc(C(=O)O)cs4)c(CC4CC4)c3Cc3ccc(S(N)(=O)=O)c(F)c3)ccc2F)cn1 [Compound 217, 2-(5-(cyclopropylmethyl)-3-(4-fluoro-3-(1-methyl-1H-pyrazol-4-yl)phenyl)-4-(3-fluoro-4-sulfamoylbenzyl)-1H-pyrazol-1-yl)thiazole-4-carboxylic acid]",–,–
1000 to 10000,< 100,"Cc1noc(C)c1-c1cc(-c2nn(-c3nc(C(=O)O)cs3)c(CC3CC3)c2Cc2ccc(S(N)(=O)=O)c(F)c2)ccc1F [Compound 219, 2-(5-(cyclopropylmethyl)-3-(3-(3,5-dimethylisoxazol-4-yl)-4-fluorophenyl)-4-(3-fluoro-4-sulfamoylbenzyl)-1H-pyrazol-1-yl)thiazole-4-carboxylic acid]",–,–
< 1000,< 100,"Cc1csc(-c2cc(-c3nn(-c4nc(C(=O)O)cs4)c(CC4CC4)c3Cc3ccc(S(N)(=O)=O)cc3F)ccc2F)c1 [Compound 221, 2-(5-(cyclopropylmethyl)-3-(4-fluoro-3-(4-methylthiophen-2-yl)phenyl)-4-(2-fluoro-4-sulfamoylbenzyl)-1H-pyrazol-1-yl)thiazole-4-carboxylic acid]",–,–
< 1000,< 100,"Cc1csc(-c2cc(-c3nn(-c4nc(C(=O)O)cs4)c(CC4CC4)c3Cc3ccc(S(N)(=O)=O)c(F)c3)ccc2F)c1 [Compound 223, 2-(5-(cyclopropylmethyl)-3-(4-fluoro-3-(4-methylthiophen-2-yl)phenyl)-4-(3-fluoro-4-sulfamoylbenzyl)-1H-pyrazol-1-yl)thiazole-4-carboxylic acid]",–,–
< 1000,< 100,"Cc1ccc(-c2cc(-c3nn(-c4nc(C(=O)O)cs4)c(CC4CC4)c3Cc3ccc(S(N)(=O)=O)c(F)c3)ccc2F)s1 [Compound 227, 2-(5-(cyclopropylmethyl)-3-(4-fluoro-3-(5-methylthiophen-2-yl)phenyl)-4-(3-fluoro-4-sulfamoylbenzyl)-1H-pyrazol-1-yl)thiazole-4-carboxylic acid]",–,–
> 57000,> 57000,"CCOC(=O)c1csc(-n2nc(-c3ccc(F)c(-c4ccc(C)s4)c3)c(Cc3ccc(S(N)(=O)=O)c(F)c3)c2CC2CC2)n1 [Compound 229, ethyl 2-(5-(cyclopropylmethyl)-3-(4-fluoro-3-(5-methylthiophen-2-yl)phenyl)-4-(3-fluoro-4-sulfamoylbenzyl)-1H-pyrazol-1-yl)thiazole-4-carboxylate]",–,–
< 1000,< 100,"Cc1ccc(-c2cc(-c3nn(-c4nc(C(=O)O)cs4)c(CC4CC4)c3Cc3ccc(S(N)(=O)=O)c(F)c3)ccc2F)o1 [Compound 230, 2-(5-(cyclopropylmethyl)-3-(4-fluoro-3-(5-methylfuran-2-yl)phenyl)-4-(3-fluoro-4-sulfamoylbenzyl)-1H-pyrazol-1-yl)thiazole-4-carboxylic acid]",–,–
< 1000,< 100,"Cc1cnc(-c2cc(-c3nn(-c4nc(C(=O)O)cs4)c(CC4CC4)c3Cc3ccc(S(N)(=O)=O)c(F)c3)ccc2F)s1 [Compound 231, 2-(5-(cyclopropylmethyl)-3-(4-fluoro-3-(5-methylthiazol-2-yl)phenyl)-4-(3-fluoro-4-sulfamoylbenzyl)-1H-pyrazol-1-yl)thiazole-4-carboxylic acid, TFA]",–,–
< 1000,< 100,"Cc1ncc(-c2cc(-c3nn(-c4nc(C(=O)O)cs4)c(CC4CC4)c3Cc3ccc(S(N)(=O)=O)c(F)c3)ccc2F)s1 [Compound 232, 2-(5-(cyclopropylmethyl)-3-(4-fluoro-3-(2-methylthiazol-5-yl)phenyl)-4-(3-fluoro-4-sulfamoylbenzyl)-1H-pyrazol-1-yl)thiazole-4-carboxylic acid]",–,–
< 1000,< 100,"Cc1ccc(-c2cc(-c3nn(-c4nc(C(=O)O)cs4)c(CC4CC4)c3Cc3ccc(S(N)(=O)=O)cc3F)ccc2F)s1 [Compound 233, 2-(5-(cyclopropylmethyl)-3-(4-fluoro-3-(5-methylthiophen-2-yl)phenyl)-4-(2-fluoro-4-sulfamoylbenzyl)-1H-pyrazol-1-yl)thiazole-4-carboxylic acid]",–,–
< 1000,< 100,"NS(=O)(=O)c1ccc(Cc2c(-c3ccc(F)c(-c4cccs4)c3)nn(-c3nc(C(=O)O)cs3)c2CC2CC2)cc1F [Compound 234, 2-(5-(cyclopropylmethyl)-3-(4-fluoro-3-(thiophen-2-yl)phenyl)-4-(3-fluoro-4-sulfamoylbenzyl)-1H-pyrazol-1-yl)thiazole-4-carboxylic acid, TFA]",–,–

"IC50 ([2]; Homo sapiens, MIA PaCa-2) [nM]","IC50 [1, 4] [nM]",Compound,"IC50 [1, 3] [nM]",IC50 [2] [nM]
–,–,COc1cccc(-c2cc(-c3nn(-c4nc(C(=O)O)cs4)c(CC4CC4)c3Cc3ccc(S(N)(=O)=O)cc3)ccc2F)c1 [Compound 237],< 100,1000 to 10000
–,–,NS(=O)(=O)c1ccc(Cc2c(-c3ccc(F)c(-c4cccc(F)c4)c3)nn(-c3nc(C(=O)O)cs3)c2CC2CC2)cc1 [Compound 239],< 100,< 1000
–,–,NS(=O)(=O)c1ccc(Cc2c(-c3ccc(F)c(-c4cccc(F)c4)c3)nn(-c3nc(C(=O)O)cs3)c2C2CC2)cc1F [Compound 251],< 100,1000 to 10000
–,–,COc1cccc(-c2cc(-c3nn(-c4nc(C(=O)O)cs4)c(C4CC4)c3Cc3ccc(S(N)(=O)=O)c(F)c3)ccc2F)c1 [Compound 252],< 100,1000 to 10000
–,–,NS(=O)(=O)c1ccc(Cc2c(-c3ccc(F)c(-c4ccccc4)c3)nn(-c3nc(C(=O)O)cs3)c2CC2CC2)cc1 [Compound 257],< 100,< 1000
–,–,NS(=O)(=O)c1ccc(Cc2c(-c3ccc(F)c(C#CC4CCCC4)c3)nn(-c3nc(C(=O)O)cs3)c2CC2CC2)cc1F [Compound 258],< 100,< 1000
–,–,CN1CC=C(c2cc(-c3nn(-c4nc(C(=O)O)cs4)c(CC4CC4)c3Cc3ccc(S(N)(=O)=O)c(F)c3)ccc2F)CC1 [Compound 259],< 100,10000 to 57000
–,–,NS(=O)(=O)c1ccc(Cc2c(-c3ccc(F)c(C#CC4CCNCC4)c3)nn(-c3nc(C(=O)O)cs3)c2CC2CC2)cc1F [Compound 261],< 100,1000 to 10000
–,–,NS(=O)(=O)c1ccc(Cc2c(-c3ccc(F)c(C#CCN4CCOCC4)c3)nn(-c3nc(C(=O)O)cs3)c2CC2CC2)cc1F [Compound 263],< 100,10000 to 57000
–,–,C=C(C)C#Cc1cc(-c2nn(-c3nc(C(=O)O)cs3)c(CC3CC3)c2Cc2ccc(S(N)(=O)=O)c(F)c2)ccc1F [Compound 264],< 100,< 1000
–,–,CC(C)(O)C#Cc1cc(-c2nn(-c3nc(C(=O)O)cs3)c(CC3CC3)c2Cc2ccc(S(N)(=O)=O)c(F)c2)ccc1F [Compound 265],< 100,1000 to 10000
–,–,CCOC(=O)c1csc(-n2nc(-c3cccc(-c4ccc(C)cc4)c3)c(Cc3ccc(S(N)(=O)=O)c(F)c3)c2CC2CC2)n1 [Compound 266],1000 to 57000,> 57000
–,–,NS(=O)(=O)c1ccc(Cc2c(-c3cccc(N4CCOCC4)c3)nn(-c3ncc(C(=O)O)s3)c2CC2CC2)cc1F [Compound 267],< 100,10000 to 57000
–,–,CCOC(=O)c1csc(-n2nc(-c3ccc(F)c(C#CC4CCCC4)c3)c(Cc3ccc(S(N)(=O)=O)c(F)c3)c2CC2CC2)n1 [Compound 268],> 57000,> 57000
–,–,CC#Cc1cccc(-c2nn(-c3ncc(C(=O)OCC)s3)c(CC3CC3)c2Cc2ccc(S(N)(=O)=O)c(F)c2)c1 [Compound 269],1000 to 57000,< 1000
–,–,Cc1ccc(-c2cccc(-c3nn(-c4nc(C(=O)O)cs4)c(CC4CC4)c3Cc3ccc(S(N)(=O)=O)cc3)c2)cc1 [Compound 281],< 100,< 1000
